Series [1] concerns the target Kv11.1 (hERG) ion channel (Homo sapiens (Human), UniProt Q12809). It is filed as cell-based. Conditions: ratio of hERG Ki (patch clamp) to pERK IC50 in KYSE520. As to the method:
Inhibition of the ion channel hErg (or Kv11.1) current causes QT interval prolongation resulting in potentially fatal ventricular tachyarrhythmia called Torsade de Pointes.
hERG ion channel activity was assessed using a patch clamp technique in stable Kv11.1 (hERG) transfected human embryonic kidney cell line (HEK293). Whole cell recordings were carried out with an automated patch clamp device Patchliner™ from Nanion Technologies, Munich following manufacturer recommendation. Different concentrations of the test compound or reference, quinidine, were applied to whole cells suspension and current was measured using a pulse pattern with fixed amplitudes.

Series [2] addresses Full length SHP2 protein (Recombinant Human SHP-2) (Homo sapiens, UniProt Q06124). The experiment in a line: SHP2 biochemical assay (DiFMUP substrate, activating peptide IRSI_2pY). The protocol:
The inhibition of SHP2 by compounds of the invention was monitored using the surrogate substrate DiFMUP after protein activation by a peptide bearing two appropriately spaced phosphotyrosine. […] The generation of the DiFMU product by activated SHP2 was monitored through Fluorescence measurement with a PerkinElmer Envision reader.
The inhibitor dose response curves were analyzed with Genedata Screener.

In series [3] the test system is pERK level in MDA-MB-468 cells. The experiment in a line: p-Erk cellular assay in MDA-MB-468 (Mesoscale). It is filed as cell-based. The following applies: 2 h incubation, read-out: pERK1/2 in MDA-MB-468 IC50. As to the method: (§1) p-Erk Cellular Assay in MDA-MB-468 and KYSE520:
(§2) The effect of SHP2 inhibitors on pERK level was assessed using phospho-specific antibody using Mesoscale quantification platform. For measuring change in pERK levels using mesoscale, 30,000 cells of MDA MB468 and KYSE520 cells were plated in 96-well tissue culture treated plate in 175 ul volume of media. After an overnight incubation at 37° C., various SHP2 inhibitors were added in different concentration to each well maintaining duplicate wells across plates and incubated with compounds for 2 h at 37° C. followed by a wash with ice cold PBS buffer. The cells were then lysed in lysis buffer and processed and analyzed for p-ERK/ERK as per manufacturer's instructions (Mesoscale discovery, cat No. K15107D-3).

For series [4], the system named is pERK level in KYSE520 cells. The experiment in a line: p-Erk cellular assay in KYSE520 (Mesoscale). In kind it is cell-based. Conditions: 2 h incubation, read-out: pERK1/2 in KYSE520 IC50. The protocol: as §1, §2
The nature of series [5]: Pharmacokinetics in female CD1 mice (oral / intravenous). The following applies: mouse PK; for clearance / Vd: female, CD1, plasma, intravenous; for Vd: read-out: Vd ss. In kind it is in vivo. The protocol:
Female CD1 mice (N=3) received a single oral (gavage) or a single intravenous (bolus) injection of compound. […] Consecutive blood samples were taken sub-lingually under isofluorane inhalation from animals after 0.083 (IV), 0.25, 0.5, 1, 2, 4, 6 and 24 h and were further processed to obtain plasma. Samples were protein precipitated and analyzed by LC/MS/MS.

Series [6] deals with T1, auto-activated mutant protein SHP2 E76K (Homo sapiens (Human), UniProt Q06124, E76K). In words: SHP2 E76K mutant biochemical assay with activating peptide IRSI_2pY. Conditions: SHP2 E76K mutant with activating peptide IRSI_2pY 140 nM; read-out: SHP-2 E76Z IC50 peptide. As to the method:
(§3) The inhibition of SHP2 by compounds of the invention was monitored using the surrogate substrate DiFMUP after protein activation by a peptide bearing two appropriately spaced phosphotyrosine. Full length SHP2 protein (Recombinant HumanSHP-2, E. coli derived Ser2Arg593, N-terminal 6His tag from R&D systems; […]) was incubated with activating peptide, IRSI_2pY (New England Peptide, 140 nM) and DiFMUP (molecular probes, 80 uM) at RT in buffer (HEPES pH 7.2 60 mM, DDT 5 mM, KCl 75 mM, NaCl 75 mM, EDTA 1 mM, Tween 20 0.05%) in presence of compound (10 concentrations range, top concentration 50 μM) for 60 min. The generation of the DiFMU product by activated SHP2 was monitored through Fluorescence measurement with a PerkinElmer Envision reader.
(§4) A selection of compounds has been tested in a biochemical assay using same conditions as described in example 3, but with an auto-activated mutant protein SHP2 E76K with and without the addition of the activating peptide IRSI_2pY (New England Peptide, 140 nM).

The target of series [7] is T1, auto-activated mutant protein SHP2 E76K. The experiment in a line: SHP2 E76K mutant biochemical assay without activating peptide. The following applies: no activating peptide, read-out: SHP-2 E76Z IC50 No peptide. As to the method:
as §3, §4

Setting [8] is: DiFMUP substrate, activating peptide IRSI_2pY, 60 min at RT, read-out: SHP-2 Biochemical assay IC50.

The values below come from patent US11033547B2, “Carboxamide-pyrimidine derivatives as SHP2 antagonists” (Merck Patent GmbH, priority 2019, dated 2021).

Counter-ions that a name gives are not always drawn. Like-named read-outs stand apart in the source and are kept apart here.

Full length SHP2 protein (Recombinant Human SHP-2), sequence (Q06124 2-593 limits assumed): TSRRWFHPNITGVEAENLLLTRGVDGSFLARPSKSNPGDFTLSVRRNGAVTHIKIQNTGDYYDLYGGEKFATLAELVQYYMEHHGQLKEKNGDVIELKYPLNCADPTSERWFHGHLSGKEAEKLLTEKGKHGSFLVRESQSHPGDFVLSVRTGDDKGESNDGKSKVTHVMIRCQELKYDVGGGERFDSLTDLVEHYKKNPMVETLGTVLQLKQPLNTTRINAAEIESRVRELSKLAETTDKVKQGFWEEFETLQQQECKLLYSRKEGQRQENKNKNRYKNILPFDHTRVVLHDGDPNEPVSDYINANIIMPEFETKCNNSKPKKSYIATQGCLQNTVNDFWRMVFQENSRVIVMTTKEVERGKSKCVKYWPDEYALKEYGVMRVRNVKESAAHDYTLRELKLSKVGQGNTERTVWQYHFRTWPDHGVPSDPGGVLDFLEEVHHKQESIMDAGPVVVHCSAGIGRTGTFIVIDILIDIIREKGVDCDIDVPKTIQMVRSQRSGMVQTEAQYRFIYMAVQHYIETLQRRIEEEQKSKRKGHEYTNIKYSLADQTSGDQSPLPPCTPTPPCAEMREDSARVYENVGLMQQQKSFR
Kv11.1 (hERG) ion channel, sequence (Q12809 whole entry): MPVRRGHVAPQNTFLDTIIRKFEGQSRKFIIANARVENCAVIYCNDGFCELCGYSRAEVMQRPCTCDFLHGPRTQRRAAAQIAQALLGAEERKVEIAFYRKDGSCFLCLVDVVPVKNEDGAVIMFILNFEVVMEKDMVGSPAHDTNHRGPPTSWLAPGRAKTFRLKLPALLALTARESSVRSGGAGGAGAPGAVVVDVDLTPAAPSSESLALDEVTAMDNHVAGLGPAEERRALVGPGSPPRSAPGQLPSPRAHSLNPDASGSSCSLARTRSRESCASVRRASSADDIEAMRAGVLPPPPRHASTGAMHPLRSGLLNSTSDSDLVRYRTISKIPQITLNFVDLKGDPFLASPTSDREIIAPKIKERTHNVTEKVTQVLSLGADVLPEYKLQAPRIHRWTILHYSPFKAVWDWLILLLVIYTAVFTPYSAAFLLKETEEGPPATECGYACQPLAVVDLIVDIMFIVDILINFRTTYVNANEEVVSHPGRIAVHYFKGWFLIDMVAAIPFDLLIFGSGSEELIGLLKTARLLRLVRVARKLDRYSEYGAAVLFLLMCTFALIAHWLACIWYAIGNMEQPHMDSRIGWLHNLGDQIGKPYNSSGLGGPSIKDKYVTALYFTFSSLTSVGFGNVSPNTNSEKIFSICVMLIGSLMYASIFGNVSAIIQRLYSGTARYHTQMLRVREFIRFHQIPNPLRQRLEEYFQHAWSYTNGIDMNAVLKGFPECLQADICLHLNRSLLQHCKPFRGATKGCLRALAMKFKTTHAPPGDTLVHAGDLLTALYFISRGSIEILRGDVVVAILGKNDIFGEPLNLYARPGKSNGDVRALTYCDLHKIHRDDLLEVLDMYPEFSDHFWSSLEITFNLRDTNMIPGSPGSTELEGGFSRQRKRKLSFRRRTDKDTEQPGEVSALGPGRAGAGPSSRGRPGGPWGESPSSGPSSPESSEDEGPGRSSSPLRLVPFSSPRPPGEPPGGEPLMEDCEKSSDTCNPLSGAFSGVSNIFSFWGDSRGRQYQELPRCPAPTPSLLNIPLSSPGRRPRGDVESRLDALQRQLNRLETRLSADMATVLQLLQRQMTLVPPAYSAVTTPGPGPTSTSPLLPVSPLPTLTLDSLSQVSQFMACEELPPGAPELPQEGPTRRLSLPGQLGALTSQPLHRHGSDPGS
T1 sequence (Q06124 whole entry E76K): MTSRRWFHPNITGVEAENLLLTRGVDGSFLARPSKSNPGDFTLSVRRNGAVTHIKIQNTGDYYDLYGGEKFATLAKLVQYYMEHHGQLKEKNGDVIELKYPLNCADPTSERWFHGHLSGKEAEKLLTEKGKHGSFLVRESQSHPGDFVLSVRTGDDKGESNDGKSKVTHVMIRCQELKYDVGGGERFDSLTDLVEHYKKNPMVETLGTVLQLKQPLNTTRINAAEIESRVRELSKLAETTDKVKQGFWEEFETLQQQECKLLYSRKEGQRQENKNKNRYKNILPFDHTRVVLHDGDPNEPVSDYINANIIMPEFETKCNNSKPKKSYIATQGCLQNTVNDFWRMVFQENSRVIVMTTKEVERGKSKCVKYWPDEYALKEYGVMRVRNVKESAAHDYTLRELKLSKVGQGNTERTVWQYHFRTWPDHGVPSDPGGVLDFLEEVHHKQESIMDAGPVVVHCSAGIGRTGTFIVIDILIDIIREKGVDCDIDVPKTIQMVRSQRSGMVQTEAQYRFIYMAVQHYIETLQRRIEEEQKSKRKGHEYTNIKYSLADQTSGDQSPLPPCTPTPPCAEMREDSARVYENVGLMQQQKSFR

In the case of `Cc1nc(N2CCC3(CC2)Cc2ccccc2[C@H]3N)nc(C(N)=O)c1-c1cccc(Cl)c1Cl` (atropisomer, axis not shown; (M)) [Compound 119, (M)-2-[(1S)-1-amino-1,3-dihydrospiro[indene-2,4′-piperidin]-1′-yl]-5-(2,3-dichlorophenyl)-6-methylpyrimidine-4-carboxamide], in series [1], the “Split between hErg and cell activity Ki(patch Clamp)/IC50 (KYSE)” value was determined as 97.
As to `CC1(N)CCN(c2nc(N)c(-c3cccc(Cl)c3Cl)c(C(N)=O)n2)CC1` (single isomer, unassigned) [Compound 27, (4P)-6-Amino-2-(4-amino-4-methyl-piperidin-1-yl)-5-(2,3-dichloro-phenyl)-pyrimidine-4-carboxylic Acid Amide], the IC50 in series [2] (setting [8]) is 82 nM. Besides, in series [3] (Homo sapiens, MDA-MB-468, 2 h), the IC50 turned out to be 342 nM. The IC50 in series [4] (Homo sapiens, KYSE-520, 2 h) was determined as 1470 nM. In series [5], the clearance was 37.3 mL/min/kg, the Vd was 8.7 L/kg, the “Clearance as compared to SHP-099 (in words)” value was “lower clearance” and the “Exposure as compared to SHP-099 (in words)” value was “higher exposure”.
On to `Cc1nc(N2CCC3(CC2)CO[C@@H](C)[C@H]3N)nc(C(N)=O)c1-c1cccc(Cl)c1Cl` (single isomer, unassigned) [Compound 95], for which, in series [2] (setting [8]), the IC50 is 22 nM. In series [3] (Homo sapiens, MDA-MB-468, 2 h), the IC50 is 497 nM. Further, the IC50 in series [4] (Homo sapiens, KYSE-520, 2 h) turned out to be 486 nM. In series [5], the clearance was 12.8 mL/min/kg, the Vd was 3.99 L/kg, the “Clearance as compared to SHP-099 (in words)” value is “lower clearance” and the “Exposure as compared to SHP-099 (in words)” value was “higher exposure”.
Consider `NC(=O)c1nc(N2CCC3(CC2)Cc2ccccc2[C@H]3N)nc(N)c1-c1cccc(Cl)c1Cl` (single isomer, unassigned) [Compound 117], for which the IC50 in series [6] was 1.1 nM; in series [7] it was 0.5 nM; in series [2] (setting [8]), 1 nM; in series [2] (wild-type SHP-2 with activating peptide, read-out: SHP-2 IC50 peptide) it was 0.4 nM. Moreover, the “Split between hErg and cell activity Ki(patch Clamp)/IC50 (KYSE)” value in series [1] is given as greater than 50.
On to `NC(=O)c1nc(N2CCC3(CC2)Cc2scnc2[C@H]3N)nc(N)c1-c1cccc(Cl)c1Cl` [Compound 121, 6-amino-2-[(4S)-4-amino-4,6-dihydrospiro[cyclopenta[d][1,3]thiazole-5,4′-piperidin]-1′-yl]-5-(2,3-dichlorophenyl)pyrimidine-4-carboxamide], for which the IC50 in series [2] (setting [8]) is 2 nM; in series [4] (Homo sapiens, KYSE-520, 2 h) it was 16 nM. In addition, the “Split between hErg and cell activity Ki(patch Clamp)/IC50 (KYSE)” value in series [1] was greater than 600.
The like results for `NC(=O)c1nc(N2CCC3(CC2)Oc2ccccc2[C@H]3N)nc(N)c1-c1cccc(Cl)c1Cl` [Compound 123, 6-amino-2-((R)-3-amino-3H-spiro[benzofuran-2,4′-piperidin]-1′-yl)-5-(2,3-dichlorophenyl)pyrimidine-4-carboxamide di-hydrochloride] were, in that order, 15 nM, 58 nM and greater than 100.
Take `CC1(N)CCN(c2nc(N)c(-c3cccc(Cl)c3Cl)c(C(N)=O)n2)CC1` [Compound No. 3, 6-Amino-2-(4-amino-4-methyl-piperidin-1-yl)-5-(2,3-dichlorophenyl)-pyrimidine-4-carboxylic Acid Amide]: the IC50 in series [2] (setting [8]) is 160 nM; in series [3], 346 nM; in series [4] it was 754 nM. Besides, the “Split between hErg and cell activity Ki(patch Clamp)/IC50 (KYSE)” value in series [1] was greater than 14.
Turning to `C[C@@H]1OCC2(CCN(c3nc(N)c(-c4cccc(Cl)c4Cl)c(C(N)=O)n3)CC2)[C@@H]1N` [Compound No. 5, 6-amino-2-[(3S,4S)-4-amino-3-methyl-2-oxa-8-azaspiro[4.5]decan-8-yl]-5-(2,3-dichlorophenyl)pyrimidine-4-carboxamide], the IC50 in series [2] (setting [8]) is 72 nM; in series [3] (Homo sapiens, MDA-MB-468, 2 h), 1010 nM; in series [4] (Homo sapiens, KYSE-520, 2 h), 1090 nM. Also, the “Split between hErg and cell activity Ki(patch Clamp)/IC50 (KYSE)” value in series [1] was greater than 10.
